The target in one test is TLR2 (Homo sapiens, UniProt O60603). As to the kind of experiment: TLR2 agonist screening assay, HEK-Blue TLR2 reporter cell line (NF-kB-driven SEAP, absorbance at 600 nm). In kind it is cell-based. Details: host or cells: HEK-293 (HEK-Blue TLR2 reporter cell line). The note with it: HEK-Blue TLR2 reporter cells, agonist mode; average of all runs (Table 3). In outline:
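EC50 values come from 600 nm absorbance of SEAP-converted substrate after overnight agonist exposure. The reporter line was HEK-293 engineered with TLR2 and an NF-kB-SEAP construct, seeded at about 40,000 cells per well 16-24 h beforehand. Compounds were added at 1% final DMSO.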
Sequence of TLR2 (O60603 21-784): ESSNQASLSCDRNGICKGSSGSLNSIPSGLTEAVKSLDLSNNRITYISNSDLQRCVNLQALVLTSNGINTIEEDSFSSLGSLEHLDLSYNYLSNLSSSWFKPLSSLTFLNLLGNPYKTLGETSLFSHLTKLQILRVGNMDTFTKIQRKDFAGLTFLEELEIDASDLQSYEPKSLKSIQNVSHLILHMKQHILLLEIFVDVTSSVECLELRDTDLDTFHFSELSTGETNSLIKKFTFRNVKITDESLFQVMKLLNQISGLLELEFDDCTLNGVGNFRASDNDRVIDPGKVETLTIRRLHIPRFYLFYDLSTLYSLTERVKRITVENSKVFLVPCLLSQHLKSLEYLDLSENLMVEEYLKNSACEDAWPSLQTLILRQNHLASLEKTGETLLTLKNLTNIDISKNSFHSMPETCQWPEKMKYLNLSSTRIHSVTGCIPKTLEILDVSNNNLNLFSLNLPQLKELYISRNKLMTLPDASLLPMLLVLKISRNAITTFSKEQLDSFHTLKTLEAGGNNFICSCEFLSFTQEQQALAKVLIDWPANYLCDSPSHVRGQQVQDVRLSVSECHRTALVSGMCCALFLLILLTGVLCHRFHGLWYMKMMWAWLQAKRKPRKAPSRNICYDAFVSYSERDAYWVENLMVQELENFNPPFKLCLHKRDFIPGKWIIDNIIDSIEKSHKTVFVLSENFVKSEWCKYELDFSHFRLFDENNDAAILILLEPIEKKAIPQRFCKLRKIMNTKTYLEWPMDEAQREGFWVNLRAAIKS
The EC50 is the concentration needed to bring the measured effect to its halfway point. The low end stands for greater potency, the high end for weaker potency. Turning to `CCCCCCCCCCCCCCNC(=O)C1CCN(C(=O)c2ccc(C(=O)N3C[C@@H](C(=O)N[C@H]4C[C@@H]4c4ccccc4)[C@H](C(=O)N[C@H]4C[C@@H]4c4ccccc4)C3)cc2)CC1` [Compound 010], the EC50 was > 1000 nM.

On to `O=C(N[C@H]1C[C@@H]1c1ccccc1)[C@@H]1CN(C(=O)c2cnc(C(=O)N3C[C@@H](C(=O)N[C@H]4C[C@@H]4c4ccccc4)[C@H](C(=O)N[C@H]4C[C@@H]4c4ccccc4)C3)cn2)C[C@H]1C(=O)N[C@H]1C[C@@H]1c1ccccc1` [Compound 067], for which the EC50 is > 1000 nM.

The compound `CCCCCCCCCCCCCCNC(=O)[C@@H]1CN(C(=O)c2ccc(C(=O)N3C[C@@H](C(=O)N[C@H]4C[C@@H]4c4ccccc4)[C@H](C(=O)N[C@H]4C[C@@H]4c4ccccc4)C3)cc2)C[C@H]1O` (racemic) [Compound 045, (3S,4S)-1-(4-((3S*,4R*)-3-hydroxy-4-(tetradecylcarbamoyl)pyrrolidine-1-carbonyl)benzoyl)-N3,N4-bis((1S,2R)-2-phenylcyclopropyl)pyrrolidine-3,4-dicarboxamide] returned an EC50 of 351 to 1000 nM.

With `CCCCCN(CCCCC)C(=O)[C@H]1CCN(C(=O)c2ccc(C(=O)N3C[C@@H](C(=O)N[C@H]4C[C@@H]4c4ccccc4)[C@H](C(=O)N[C@H]4C[C@@H]4c4ccccc4)C3)cc2)C1` [Compound 022], the EC50 is > 1000 nM.

The compound `CCCCCCNC(=O)C1CN(C(=O)c2ccc(C(=O)N3C[C@@H](C(=O)N[C@H]4C[C@@H]4c4ccccc4)[C@H](C(=O)N[C@H]4C[C@@H]4c4ccccc4)C3)cc2)CCN1C(=O)CCCCC` (stereo partly drawn) [Compound 050, (3S,4S)-1-(4-(4-hexanoyl-3-(hexylcarbamoyl)piperazine-1-carbonyl)benzoyl)-N3,N4-bis((1S,2R)-2-phenylcyclopropyl)pyrrolidine-3,4-dicarboxamide] returned an EC50 of 51 to 350 nM.

In the case of `CCCCCCCC(=O)N1CCN(C(=O)c2ccc(C(=O)N3C[C@@H](C(=O)N[C@H]4C[C@@H]4c4ccccc4)[C@H](C(=O)N[C@H]4C[C@@H]4c4ccccc4)C3)cc2)CC1C(=O)NCC` (stereo partly drawn) [Compound 048, (3S,4S)-1-(4-(3-(ethylcarbamoyl)-4-octanoylpiperazine-1-carbonyl)benzoyl)-N3,N4-bis ((1S,2R)-2-phenylcyclopropyl) pyrrolidine-3,4-dicarboxamide], the EC50 was 351 to 1000 nM.

As for `CCCCCCCOC1CN(C(=O)c2ccc(C(=O)N3C[C@@H](C(=O)N[C@H]4C[C@@H]4c4ccccc4)[C@H](C(=O)N[C@H]4C[C@@H]4c4ccccc4)C3)cc2)C[C@H]1OCCCCCCC` (stereo partly shown) [Compound 016], the EC50 was > 1000 nM.

For `CCCCCCCCCCCCCCNC(=O)C1CN(C(=O)c2ccc(C(=O)N3C[C@@H](C(=O)N[C@H]4C[C@@H]4c4ccccc4)[C@H](C(=O)N[C@H]4C[C@@H]4c4ccccc4)C3)cc2)CCO1` (stereo partly shown) [Compound 006], the EC50 is 351 to 1000 nM.

The same test, now with this note: HEK-Blue TLR2 reporter cells, agonist mode; average of all runs (Table 4).
`CCCCCCCCCCCCCCNC(=O)[C@H]1CCCN(C(=O)c2ccc(C(=O)N3C[C@@H](C(=O)N[C@H]4C[C@@H]4c4ccccc4)[C@H](C(=O)N[C@H]4C[C@@H]4c4ccccc4)C3)cc2)C1` [Compound 123, (3S,4S)—N3,N4-bis((1S,2R)-2-phenylcyclopropyl)-1-(4-((S)-3-(tetradecylcarbamoyl)piperidine-1-carbonyl)benzoyl)pyrrolidine-3,4-dicarboxamide] showed an EC50 of 0.1 to 50 nM.

As for `CCCCCCCCCCCCCCNC(=O)[C@@H]1CN(S(=O)(=O)c2cccc(C(=O)N3C[C@@H](C(=O)N[C@H]4C[C@@H]4c4ccccc4)[C@H](C(=O)N[C@H]4C[C@@H]4c4ccccc4)C3)c2)CCN1C(C)=O` [Compound 193, (3S,4S)-1-(3-(((S)-4-acetyl-3-(tetradecylcarbamoyl)piperazin-1-yl)sulfonyl)benzoyl)-N3,N4-bis((1S,2R)-2-phenylcyclopropyl)pyrrolidine-3,4-dicarboxamide], the EC50 was 51 to 350 nM.

Compound `CCCCCCCCCC(=O)N[C@@H](COC(=O)Nc1ccc(C(=O)N2C[C@@H](C(=O)N[C@H]3C[C@@H]3c3ccccc3)[C@H](C(=O)N[C@H]3C[C@@H]3c3ccccc3)C2)cc1)C(=O)NCCCCCC` [Compound 239, (S)-2-decanamido-3-(hexylamino)-3-oxopropyl (4-((3S,4S)-3,4-bis(((1S,2R)-2-phenylcyclopropyl)carbamoyl)pyrrolidine-1-carbonyl)phenyl)carbamate] gave an EC50 of 0.1 to 50 nM.

`CCCCCCCC[C@@H]1CN(C(=O)c2ccc(C(=O)N3C[C@@H](C(=O)N[C@H]4C[C@@H]4c4ccccc4)[C@H](C(=O)N[C@H]4C[C@@H]4c4ccccc4)C3)cc2)C[C@H]1C(=O)NCCCCCC` (racemic) [Compound 085, (3S,4S)-1-(4-((3S*,4S*)-3-(hexylcarbamoyl)-4-octylpyrrolidine-1-carbonyl)benzoyl)-N3,N4-bis((1S,2R)-2-phenylcyclopropyl)pyrrolidine-3,4-dicarboxamide] registered an EC50 of 0.1 to 50 nM.

For the compound `CCCCCCCCCNC(=O)[C@@H]1CN(C(=O)c2ccc(C(=O)N3C[C@@H](C(=O)N[C@H]4C[C@@H]4c4ccccc4)[C@H](C(=O)N[C@H]4C[C@@H]4c4ccccc4)C3)cc2)CCN1C(C)=O` [Compound 257, (3S,4S)-1-(4-((S)-4-acetyl-3-(nonylcarbamoyl)piperazine-1-carbonyl)benzoyl)-N3,N4-bis((1S,2R)-2-phenylcyclopropyl)pyrrolidine-3,4-dicarboxamide], the EC50 is 351 to 1000 nM.

`O=C(N[C@H]1C[C@@H]1c1ccccc1)[C@@H]1CN(C(=O)c2ccc(C(=O)N3C[C@@H](C(=O)N[C@H]4C[C@@H]4c4cccnc4)[C@H](C(=O)N[C@H]4C[C@@H]4c4cccnc4)C3)cc2)C[C@H]1C(=O)N[C@H]1C[C@@H]1c1ccccc1` (single isomer, unassigned) [Compound 094, (3S,4S)-1-(4-((3S,4S)-3,4-bis(((1S*,2R*)-2-(pyridin-3-yl)cyclopropyl)carbamoyl)pyrrolidine-1-carbonyl)benzoyl)-N3,N4-bis((1S,2R)-2-phenylcyclopropyl) pyrrolidine-3,4-dicarboxamide] had an EC50 of 51 to 350 nM.

With `O=C(N[C@H]1C[C@@H]1c1ccccc1)[C@@H]1CN(C(=O)c2ccc(C(=O)N3C[C@@H](C(=O)N[C@H]4C[C@@H]4c4ccccc4)[C@H](C(=O)N[C@@H]4C[C@H]4c4cccnc4)C3)cc2)C[C@H]1C(=O)N[C@H]1C[C@@H]1c1ccccc1` (single isomer, unassigned) [Compound 097, (3S,4S)—N3-((1S)-2-phenylcyclopropyl)-N4-(2-phenylcyclopropyl)-1-(4-((3S,4S)-3-(((1S,2R)-2-phenylcyclopropyl)carbamoyl)-4-(((1S*,2R*)-2-(pyridin-3-yl)cyclopropyl)carbamoyl)pyrrolidine-1-carbonyl)benzoyl)pyrrolidine-3,4-dicarboxamide], the EC50 was in the range of 51 to 350 nM.

As to `CCCCCCNC(=O)[C@H](CN[C@H](c1ccc(C(=O)N2C[C@@H](C(=O)N[C@H]3C[C@@H]3c3ccccc3)[C@H](C(=O)N[C@H]3C[C@@H]3c3ccccc3)C2)cc1)C(F)(F)F)NC(=O)CCCCCC` (single isomer, unassigned) [Compound 149], the EC50 lay in the range of 51 to 350 nM.

Consider `CCCCCCCCCCCCCCNC(=O)[C@@H]1CN(C(=O)c2ccc(C(=O)N3C[C@@H](C(=O)N[C@H]4C[C@@H]4c4ccccc4)[C@H](C(=O)N[C@H]4C[C@@H]4c4ccccc4)C3)cc2)CCN1C(=O)CC(C)C` [Compound 252, (3S,4S)-1-(4-((S)-4-(3-methylbutanoyl)-3-(tetradecylcarbamoyl)piperazine-1-carbonyl)benzoyl)-N3,N4-bis((1S,2R)-2-phenylcyclopropyl)pyrrolidine-3,4-dicarboxamide], for which the EC50 was > 1000 nM.

Turning to `CCCCCCCCCCCCCCNC(=O)[C@H]1CN(S(=O)(=O)c2ccc(C(=O)N3C[C@@H](C(=O)N[C@H]4C[C@@H]4c4ccccc4)[C@H](C(=O)N[C@H]4C[C@@H]4c4ccccc4)C3)cc2)CCN1C(C)=O` [Compound 195, (3S,4S)-1-(4-(((R)-4-acetyl-3-(tetradecylcarbamoyl)piperazin-1-yl)sulfonyl)benzoyl)-N3,N4-bis((1S,2R)-2-phenylcyclopropyl)pyrrolidine-3,4-dicarboxamide], the EC50 was > 1000 nM.

`O=C(N[C@H]1C[C@@H]1c1ccccc1)[C@@H]1CN(C(=O)C23CCC(C(=O)N4C[C@@H](C(=O)N[C@H]5C[C@@H]5c5ccccc5)[C@H](C(=O)N[C@H]5C[C@@H]5c5ccccc5)C4)(CC2)C3)C[C@H]1C(=O)N[C@H]1C[C@@H]1c1ccccc1` [Compound 081, (3S,3'S,4S,4'S)-1,1′-(bicyclo [2.2.1]heptane-1,4-dicarbonyl) bis (N3,N4-bis((1S,2R)-2-phenylcyclopropyl)pyrrolidine-3,4-dicarboxamide)] returned an EC50 of 351 to 1000 nM.

Compound `CCCCCCCCCC(=O)N[C@@H](CNCc1ccc(C(=O)N2C[C@@H](C(=O)N[C@H]3C[C@@H]3c3ccccc3)[C@H](C(=O)N[C@H]3C[C@@H]3c3ccccc3)C2)cc1)C(=O)NCCCCCC` [Compound 266, (3S,4S)-1-(4-((((S)-2-decanamido-3-(hexylamino)-3-oxopropyl)amino)methyl)benzoyl)-N3,N4-bis((1S,2R)-2-phenylcyclopropyl) pyrrolidine-3,4-dicarboxamide] came in with an EC50 of 351 to 1000 nM.

For `CCCCCCCCCCCCCNC(=O)[C@@H]1CN(C(=O)c2ccc(C(=O)N3C[C@@H](C(=O)N[C@H]4C[C@@H]4c4ccccc4)[C@H](C(=O)N[C@H]4C[C@@H]4c4ccccc4)C3)cc2)CCN1C(C)=O` [Compound 254, (3S,4S)-1-(4-((S)-4-acetyl-3-(tridecylcarbamoyl)piperazine-1-carbonyl)benzoyl)-N3,N4-bis((1S,2R)-2-phenylcyclopropyl)pyrrolidine-3,4-dicarboxamide], the EC50 was > 1000 nM.

In turn, `CCCCCCCCCCCCCCNC(=O)[C@H]1CN(C(=O)c2ccc(C(=O)N3C[C@@H](C(=O)N[C@H]4C[C@@H]4c4ccccc4)[C@H](C(=O)N[C@H]4C[C@@H]4c4ccccc4)C3)cc2)C[C@@H]1O` (single isomer, unassigned) [Compound 106, (3S,4S)-1-(4-((3S*,4R*)-3-hydroxy-4-(tetradecylcarbamoyl)pyrrolidine-1-carbonyl)benzoyl)-N3,N4-bis((1S,2R)-2-phenylcyclopropyl)pyrrolidine-3,4-dicarboxamide] had an EC50 of 51 to 350 nM.

The values are drawn from patent US11951094B2, “TLR2 modulator compounds, pharmaceutical compositions and uses thereof” (Axial Therapeutics, Inc., priority 2020, dated 2024).
